Earlier results, collected in patent publication US20250241354A1, “ORAL PRODUCTS” (RAI STRATEGIC HOLDINGS, INC., priority 2024, published 2025).

Settings: in words

Structure (SMILES) | solubility
CC(/C=C/C=C(C)/C=C/C(=O)O)=C\C=C\C=C(C)\C=C\C=C(C)\C=C\C(=O)O (stereo in doubt) [norbixin, (2E,4E,6E,8E,10E,12E,14E,16E,18E)-4,8,13,17-tetramethylicosa-2,4,6,8,10,12,14,16,18-nonaenedioic acid] | water-soluble
COC(=O)/C=C/C(C)=C\C=C\C(C)=C\C=C\C=C(C)\C=C\C=C(C)\C=C\C(=O)O [bixin, (2E,4E,6E,8E,10E,12E,14E,16Z,18E)-20-methoxy-4,8,13,17-tetramethyl-20-oxoicosa-2,4,6,8,10,12,14,16,18-nonaenoic acid] | soluble in fats and alcohols but insoluble in water
